From paper PMC6268188, “Comparative Studies of the (Anti) Mutagenicity of Baccharis dracunculifolia and Artepillin C by the Bacterial Reverse Mutation Test” (Molecules, 2012)
Several values for one entry are separate records, joined by “and”; a condition that tells them apart may be missing. Equal entries are not always repeated. Where two headings read alike, the source gives them in different places. Marks after values point to notes of the source that are not given here.

Tests used:
[1] = system: S. typhimurium TA100
[2] = system: S. typhimurium TA98
[3] = system: mouse micronucleus and comet; parameters: method as in PMID 21259290; conditions: mouse micronucleus and comet assays; cited from earlier work
[4] = system: S. typhimurium TA100; remark: listed apart in the source
[5] = system: DNA damage induced by methyl methanesulfonate and doxorubicin; conditions: micronucleus and comet assays; cited from earlier work
[6] = system: S. typhimurium TA97a
[7] = 0.69 µg/plate + AFB1 0.5 μg/plate, TA 100, + S9
[8] = 0.69 µg/plate + SA 1.25 μg/plate, TA 100, − S9
[9] = 1.37 µg/plate + AFB1 0.5 μg/plate, TA 100, + S9
[10] = 1.37 µg/plate + SA 1.25 μg/plate, TA 100, − S9
[11] = 2.75 µg/plate + AFB1 0.5 μg/plate, TA 100, + S9
[12] = 2.75 µg/plate + SA 1.25 μg/plate, TA 100, − S9
[13] = 5.49 µg/plate + AFB1 0.5 μg/plate, TA 100, + S9
[14] = 5.49 µg/plate + SA 1.25 μg/plate, TA 100, − S9
[15] = […] + SA 1.25 μg/plate, TA 100, − S9

Structure (SMILES): CC(C)=CCc1cc(/C=C/C(=O)O)cc(CC=C(C)C)c1O [ArtC, 3-{4-hydroxy-3,5-di(3-methyl-2-butenyl)phenyl}-2(E)-propenoic acid]
- % inhibition [1]: 30 ** %
- Number of revertants (M ± SD)/ plate [1]: 1885 ± 25 revertants/plate and 1507 ± 43 revertants/plate
- antimutagenic effect class [1]: 30 ** (key: *: no antimutagenic effect (< 25% inhibition); **: moderate effect (25% - 40% inhibition); ***: strong antimutagenic effect (> 40% inhibition))
- % inhibition [1, 7]: 26%
- Number of revertants (M ± SD)/ plate [1, 7]: 1595 ± 37 revertants/plate
- % inhibition [1, 8]: 16%
- Number of revertants (M ± SD)/ plate [1, 8]: 1833 ± 48 revertants/plate
- antimutagenic effect class [1, 8]: * (no antimutagenic effect (< 25% inhibition))
- % inhibition [1, 9]: 24%
- Number of revertants (M ± SD)/ plate [1, 9]: 1639 ± 33 revertants/plate
- antimutagenic effect class [1, 9]: * (no antimutagenic effect (< 25% inhibition))
- % inhibition [1, 10]: 11%
- Number of revertants (M ± SD)/ plate [1, 10]: 1957 ± 36 revertants/plate
- antimutagenic effect class [1, 10]: * (no antimutagenic effect (< 25% inhibition))
- % inhibition [1, 11]: 27%
- Number of revertants (M ± SD)/ plate [1, 11]: 1575 ± 11 revertants/plate
- % inhibition [1, 12]: 17%
- Number of revertants (M ± SD)/ plate [1, 12]: 1813 ± 24 revertants/plate
- antimutagenic effect class [1, 12]: * (no antimutagenic effect (< 25% inhibition))
- % inhibition [1, 13]: 26%
- Number of revertants (M ± SD)/ plate [1, 13]: 1600 ± 38 revertants/plate
- % inhibition [1, 14]: 21%
- Number of revertants (M ± SD)/ plate [1, 14]: 1727 ± 39 revertants/plate
- antimutagenic effect class [1, 14]: * (no antimutagenic effect (< 25% inhibition))
- inhibition of AFB1-induced mutation (text; number = highest observed percent inhibition) ([1]; TA100, with metabolic activation, AFB1): did inhibit mutation
- % inhibition [1, 15]: 14%
- antimutagenic effect class [1, 15]: * (no antimutagenic effect (< 25% inhibition))
- MI (mutagenicity index) ([2]; 0.69 µg/plate, TA 98, + S9): 0.9
- Number of revertants (M ± SD)/ plate ([2]; 0.69 µg/plate, TA 98, + S9): 28 ± 3 revertants/plate
- MI (mutagenicity index) ([2]; 0.69 µg/plate, TA 98, − S9): 1.0
- Number of revertants (M ± SD)/ plate ([2]; 0.69 µg/plate, TA 98, − S9): 21 ± 3 revertants/plate
- MI (mutagenicity index) ([2]; 1.37 µg/plate, TA 98, + S9): 1.1
- Number of revertants (M ± SD)/ plate ([2]; 1.37 µg/plate, TA 98, + S9): 32 ± 1 revertants/plate
- MI (mutagenicity index) ([2]; 1.37 µg/plate, TA 98, − S9): 1.2
- Number of revertants (M ± SD)/ plate ([2]; 1.37 µg/plate, TA 98, − S9): 24 ± 4 revertants/plate
- MI (mutagenicity index) ([2]; 2.75 µg/plate, TA 98, + S9): 1.0
- Number of revertants (M ± SD)/ plate ([2]; 2.75 µg/plate, TA 98, + S9): 29 ± 3 revertants/plate
- MI (mutagenicity index) ([2]; 2.75 µg/plate, TA 98, − S9): 1.4
- Number of revertants (M ± SD)/ plate ([2]; 2.75 µg/plate, TA 98, − S9): 28 ± 5 revertants/plate
- MI (mutagenicity index) ([2]; 5.49 µg/plate, TA 98, + S9): 1.1
- Number of revertants (M ± SD)/ plate ([2]; 5.49 µg/plate, TA 98, + S9): 32 ± 2 revertants/plate
- MI (mutagenicity index) ([2]; 5.49 µg/plate, TA 98, − S9): 1.5
- Number of revertants (M ± SD)/ plate ([2]; 5.49 µg/plate, TA 98, − S9): 29 ± 1 revertants/plate
- genotoxic potential [3]: not genotoxic
- MI (mutagenicity index) ([4]; 0.69 µg/plate, TA 100, + S9): 1.0
- Number of revertants (M ± SD)/ plate ([4]; 0.69 µg/plate, TA 100, + S9): 171 ± 1 revertants/plate
- MI (mutagenicity index) ([4]; 0.69 µg/plate, TA 100, − S9): 1.2
- Number of revertants (M ± SD)/ plate ([4]; 0.69 µg/plate, TA 100, − S9): 179 ± 4 revertants/plate
- MI (mutagenicity index) ([4]; 1.37 µg/plate, TA 100, + S9): 1.0
- Number of revertants (M ± SD)/ plate ([4]; 1.37 µg/plate, TA 100, + S9): 171 ± 2 revertants/plate
- MI (mutagenicity index) ([4]; 1.37 µg/plate, TA 100, − S9): 1.1
- Number of revertants (M ± SD)/ plate ([4]; 1.37 µg/plate, TA 100, − S9): 174 ± 4 revertants/plate
- MI (mutagenicity index) ([4]; 2.75 µg/plate, TA 100, + S9): 0.9
- Number of revertants (M ± SD)/ plate ([4]; 2.75 µg/plate, TA 100, + S9): 144 ± 2 revertants/plate
- MI (mutagenicity index) ([4]; 2.75 µg/plate, TA 100, − S9): 1.1
- Number of revertants (M ± SD)/ plate ([4]; 2.75 µg/plate, TA 100, − S9): 169 ± 6 revertants/plate
- MI (mutagenicity index) ([4]; 5.49 µg/plate, TA 100, + S9): 0.9
- Number of revertants (M ± SD)/ plate ([4]; 5.49 µg/plate, TA 100, + S9): 153 ± 2 revertants/plate
- MI (mutagenicity index) ([4]; 5.49 µg/plate, TA 100, − S9): 1.0
- Number of revertants (M ± SD)/ plate ([4]; 5.49 µg/plate, TA 100, − S9): 158 ± 7 revertants/plate
- protection against DNA damage [5]: able to protect against DNA damage
- MI (mutagenicity index) ([6]; 0.69 µg/plate, TA 97, + S9): 1.2
- Number of revertants (M ± SD)/ plate ([6]; 0.69 µg/plate, TA 97, + S9): 194 ± 3 revertants/plate
- MI (mutagenicity index) ([6]; 0.69 µg/plate, TA 97, − S9): 1.4
- Number of revertants (M ± SD)/ plate ([6]; 0.69 µg/plate, TA 97, − S9): 207 ± 3 revertants/plate
- MI (mutagenicity index) ([6]; 1.37 µg/plate, TA 97, + S9): 1.1
- Number of revertants (M ± SD)/ plate ([6]; 1.37 µg/plate, TA 97, + S9): 174 ± 1 revertants/plate
- MI (mutagenicity index) ([6]; 1.37 µg/plate, TA 97, − S9): 1.5
- Number of revertants (M ± SD)/ plate ([6]; 1.37 µg/plate, TA 97, − S9): 221 ± 6 revertants/plate
- MI (mutagenicity index) ([6]; 2.75 µg/plate, TA 97, + S9): 1.1
- Number of revertants (M ± SD)/ plate ([6]; 2.75 µg/plate, TA 97, + S9): 175 ± 4 revertants/plate
- MI (mutagenicity index) ([6]; 2.75 µg/plate, TA 97, − S9): 1.6
- Number of revertants (M ± SD)/ plate ([6]; 2.75 µg/plate, TA 97, − S9): 246 ± 5 revertants/plate
- MI (mutagenicity index) ([6]; 5.49 µg/plate, TA 97, + S9): 1.1
- Number of revertants (M ± SD)/ plate ([6]; 5.49 µg/plate, TA 97, + S9): 175 ± 1 revertants/plate
